Test results reported in patent US12404486B1, “Aspergillus oryzae JAAS-32 and use thereof in preparation of larval Hermetia illucens paste protein peptide” (Jiangsu Academy of Agricultural Sciences, priority 2024, dated 2025).

Columns and labels:
Test in all cases: Oxford cup inhibition zone test of antibacterial Hermetia illucens peptide
Type in all cases: cell-based
Details in all cases: positive control, 1 mg/ml of chloramphenicol
Escherichia coli = tested on: Escherichia coli
Source text: (§1) Article number (Art. No.) of Staphylococcus aureus: CICC 10306; Art. No. of Escherichia coli: CICC 10372; Art. No. of Vibrio alginolyticus: CICC 10484.
(§2) 1. Extraction of the Antibacterial Peptide of the Larval Hermetia Illucens Paste
(§3) (1) Preparation of an antibacterial peptide extraction solution (10% acetic acid and 0.01 mol/L Na2EDTA).
(§4) (2) The fermentation liquor of larval Hermetia illucens paste in the untreated group and the Aspergillus oryzae fermentation group of Example 2 was mixed with the antibacterial peptide extraction solution well (v: v=1:10), respectively, and liquid-solid extracted for half an hour at 200 rpm and 37° C., then transferred to a centrifugal machine (3500 rpm, 25 min); supernatant was collected as a crude extraction solution of the antibacterial peptide. The crude extraction solution was further frozen-dried to obtain the antibacterial Hermetia illucens peptide.
(§5) 2. Determination of Antibacteral Activity of the Antibacterial Hermetia Illucens Peptide
(§6) […] The concentration of the Staphylococcus aureus solution and Escherichia coli solution as well as Vibrio alginolyticus solution was determined 1.0×10^9 CFU/mL, 1.0×10^9 CFU/mL, and 1.0×10^7 CFU/mL, respectively; proper amount of the Staphylococcus aureus solution and Escherichia coli solution were absorbed and evenly coated on LB media, and the Vibrio alginolyticus solution was coated on a TCBS plate. An Oxford cup having a diameter of 7.5 mm was slightly placed on the LB plate, added with an equivalent amount of the antibacterial Hermetia illucens peptide, and cultured in a 37° C. thermostatic incubator for 10 hours, then the diameter of inhibition zones was observed and measured.

Staphylococcus aureus = tested on: Staphylococcus aureus
Source text: as §1, §2, §3, §4, §5, §6

Vibrio alginolyticus = tested on: Vibrio alginolyticus
Source text: as §1, §2, §3, §4, §5, §6

## O=C(N[C@H](CO)[C@H](O)c1ccc([N+](=O)[O-])cc1)C(Cl)Cl [chloramphenicol]
Escherichia coli
  Diameter of inhibition zone: 17 mm
Staphylococcus aureus
  Diameter of inhibition zone: 16 mm
Vibrio alginolyticus
  Diameter of inhibition zone: 26 mm
